Values joined by “and” are separate entries in the source; they are usually repeats but may differ in a detail not shown here. Equal entries are not always repeated. Toxic doses and inconclusive results are not listed. No stated cut-off is given here; in the data, active means T/C of 150% or more; inactive means T/C below 125%.
Tested on: L1210 leukemia ip in BDF1 mice, survival T/C
Assay: NCI In Vivo Anticancer Drug Screen. Data for tumor model L1210 Leukemia (intraperitoneal) in B6D2F1 (BDF1) mice
Conditions: endpoint: mean survival time, higher = longer survival
How it was run: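 Survival endpoint. Drug-treated group vs vehicle group, expressed as T divided by C. Tumor passaged by transplantation.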

[1] = dose: 25.0 mg/kg/injection, schedule: Q04DX003 (ip), vehicle: Klucel (hydroxypropylcellulose) (HPC)
[2] = dose: 100.0 mg/kg/injection, schedule: Q04DX003 (ip), vehicle: saline
[3] = dose: 200.0 mg/kg/injection, schedule: Q04DX003 (ip), vehicle: saline
[4] = dose: 50.0 mg/kg/injection, schedule: Q04DX003 (ip), vehicle: Klucel (hydroxypropylcellulose) (HPC)
[5] = dose: 100.0 mg/kg/injection, schedule: Q04DX003 (ip), vehicle: Klucel (hydroxypropylcellulose) (HPC)
[6] = dose: 100.0 mg/kg/injection, schedule: Q01DX001 (ip), vehicle: saline
[7] = dose: 200.0 mg/kg/injection, schedule: Q01DX001 (ip), vehicle: saline
[8] = dose: 50.0 mg/kg/injection, schedule: Q04DX002 (ip), vehicle: saline
[9] = dose: 100.0 mg/kg/injection, schedule: Q04DX002 (ip), vehicle: saline
[10] = dose: 100.0 mg/kg/injection, schedule: Q04DX003 (ip), vehicle: saline with Tween-80
[11] = dose: 200.0 mg/kg/injection, schedule: Q04DX003 (ip), vehicle: saline with Tween-80
[12] = dose: 400.0 mg/kg/injection, schedule: Q04DX003 (ip), vehicle: saline with Tween-80
[13] = dose: 400.0 mg/kg/injection, schedule: Q04DX003 (ip), vehicle: saline

Measured: T/C

C/C=C(/C)C(=O)O[C@H]1CC[C@@]2(C)[C@@H]3CC[C@H]4[C@]5(O)C[C@H](O)[C@@]6(O)[C@@H](CN7C[C@@H](C)CC[C@H]7[C@@]6(C)O)[C@]5(O)C[C@@]42O[C@@]13O
inactive: dose: 0.5 mg/kg/injection, schedule: Q01DX001 (ip), vehicle: saline 95 % of control | dose: 1.0 mg/kg/injection, schedule: Q01DX001 (ip), vehicle: saline 98 % of control | dose: 1.5 mg/kg/injection, schedule: Q04DX003 (ip), vehicle: saline with Tween-80 102 % of control | dose: 2.0 mg/kg/injection, schedule: Q01DX001 (ip), vehicle: saline 95 % of control | dose: 4.0 mg/kg/injection, schedule: Q01DX001 (ip), vehicle: saline 101 % of control | dose: 5.0 mg/kg/injection, schedule: Q01DX001 (ip), vehicle: saline 95 % of control

c1ccc(CC[P+](c2ccccc2)(c2ccccc2)c2ccccc2)cc1
inactive: dose: 0.78 mg/kg/injection, schedule: Q01DX009 (ip), vehicle: Klucel (hydroxypropylcellulose) (HPC) 97 % of control | dose: 1.56 mg/kg/injection, schedule: Q01DX009 (ip), vehicle: Klucel (hydroxypropylcellulose) (HPC) 96 % of control | dose: 3.13 mg/kg/injection, schedule: Q01DX009 (ip), vehicle: Klucel (hydroxypropylcellulose) (HPC) 92 % of control | dose: 12.5 mg/kg/injection, schedule: Q04DX003 (ip), vehicle: Klucel (hydroxypropylcellulose) (HPC) 101 % of control | [1] 103 % of control

CN(C(=O)c1ccc([N+](=O)[O-])cc1)C(c1ccco1)P(=O)(c1ccccc1)c1ccccc1 (stereo not drawn)
inactive: dose: 100.0 mg/kg/injection, schedule: Q01DX009 (ip), vehicle: saline with Tween-80 90 % of control | dose: 100.0 mg/kg/injection, schedule: Q04DX002 (ip), vehicle: saline with Tween-80 96 % of control | dose: 200.0 mg/kg/injection, schedule: Q01DX009 (ip), vehicle: saline with Tween-80 87 % of control | dose: 200.0 mg/kg/injection, schedule: Q04DX002 (ip), vehicle: saline with Tween-80 86 % of control | dose: 400.0 mg/kg/injection, schedule: Q01DX009 (ip), vehicle: saline with Tween-80 90 % of control | dose: 400.0 mg/kg/injection, schedule: Q04DX002 (ip), vehicle: saline with Tween-80 93 % of control

c1ccc(C[N+]23CC[N+](Cc4ccccc4)(CC2)CC3)cc1
inactive: dose: 50.0 mg/kg/injection, schedule: Q01DX009 (ip), vehicle: saline 107 % of control | dose: 100.0 mg/kg/injection, schedule: Q01DX009 (ip), vehicle: saline 111 % of control | [2] 97 % of control | dose: 200.0 mg/kg/injection, schedule: Q01DX009 (ip), vehicle: saline 114 % of control | [3] 100 % of control

O=C(Nc1ccc(NC(=O)Nc2cc(C(=O)Nc3ccc(C4=NCCN4)cc3)ccc2C(=O)Nc2ccc(C3=NCCN3)cc2)cc1)Nc1cc(C(=O)Nc2ccc(C3=NCCN3)cc2)ccc1C(=O)Nc1ccc(C2=NCCN2)cc1
inactive: dose: 100.0 mg/kg/injection, schedule: Q01DX Z (oral), vehicle: saline 93 % of control | dose: 120.0 mg/kg/injection, schedule: Q01DX Z (ip), vehicle: saline 120 % of control | dose: 200.0 mg/kg/injection, schedule: Q01DX Z (oral), vehicle: saline 98 % of control | dose: 400.0 mg/kg/injection, schedule: Q01DX Z (oral), vehicle: saline 101 % of control

[O]=[Zr]
inactive: [1] 90 % of control | [4] 88 % of control | [5] 88 % of control

CC(=O)OC1CC2C(C)(C)C(=O)C3OC3C2(C)C2CCC3(C)C(=CC(=O)OC3c3ccoc3)C12C (stereo not drawn)
inactive: dose: 100.0 mg/kg/injection, schedule: Q01DX001 (sc), vehicle: steriod suspending solution 101 % of control | dose: 200.0 mg/kg/injection, schedule: Q01DX001 (sc), vehicle: steriod suspending solution 104 % of control | dose: 400.0 mg/kg/injection, schedule: Q01DX001 (sc), vehicle: steriod suspending solution 103 % of control

COC(=O)C1(C)COP(=O)(Nc2ccc(OC)cc2)OC1 (stereo not drawn)
inactive: [6] 89 % of control | [7] 89 % of control

O=C(Nc1ccc(O)cc1)OCc1ccccc1
inactive: dose: 45.0 mg/kg/injection, schedule: Q04DX003 (ip), vehicle: Klucel (hydroxypropylcellulose) (HPC) 105 % of control | dose: 50.0 mg/kg/injection, schedule: Q01DX009 (ip), vehicle: Klucel (hydroxypropylcellulose) (HPC) 102 % of control | [4] 91 % of control | dose: 65.0 mg/kg/injection, schedule: Q04DX003 (ip), vehicle: Klucel (hydroxypropylcellulose) (HPC) 101 % of control | dose: 100.0 mg/kg/injection, schedule: Q01DX001 (ip), vehicle: Klucel (hydroxypropylcellulose) (HPC) 109 % of control | dose: 100.0 mg/kg/injection, schedule: Q01DX009 (ip), vehicle: Klucel (hydroxypropylcellulose) (HPC) 104 % of control | [5] 95 % of control | dose: 200.0 mg/kg/injection, schedule: Q01DX001 (ip), vehicle: Klucel (hydroxypropylcellulose) (HPC) 106 % of control | dose: 200.0 mg/kg/injection, schedule: Q01DX009 (ip), vehicle: Klucel (hydroxypropylcellulose) (HPC) 96 % of control | dose: 200.0 mg/kg/injection, schedule: Q04DX003 (ip), vehicle: Klucel (hydroxypropylcellulose) (HPC) 105 % of control and 106 % of control | dose: 400.0 mg/kg/injection, schedule: Q01DX001 (ip), vehicle: Klucel (hydroxypropylcellulose) (HPC) 97 % of control | dose: 400.0 mg/kg/injection, schedule: Q01DX009 (ip), vehicle: Klucel (hydroxypropylcellulose) (HPC) 94 % of control | dose: 400.0 mg/kg/injection, schedule: Q04DX003 (ip), vehicle: Klucel (hydroxypropylcellulose) (HPC) 98 % of control

COc1ccc(C2=CC(=O)C(c3ccc(OC)cc3)=CC2=O)cc1
inactive: dose: 20.0 mg/kg/injection, schedule: Q01DX009 (ip), vehicle: gum acacia 88 % of control | dose: 20.0 mg/kg/injection, schedule: Q04DX003 (ip), vehicle: gum acacia 86 % of control | dose: 40.0 mg/kg/injection, schedule: Q04DX003 (ip), vehicle: gum acacia 92 % of control | dose: 80.0 mg/kg/injection, schedule: Q01DX009 (ip), vehicle: gum acacia 97 % of control | dose: 80.0 mg/kg/injection, schedule: Q04DX003 (ip), vehicle: gum acacia 91 % of control

Cc1cc2cc3cccnn3c2nn1
inactive: dose: 25.0 mg/kg/injection, schedule: Q04DX002 (ip), vehicle: saline 106 % of control | [8] 98 % of control | dose: 100.0 mg/kg/injection, schedule: Q04DX002 (ip), vehicle: Klucel (hydroxypropylcellulose) (HPC) 118 % of control | [9] 106 % of control

C=CCNC(=O)Nc1cccc(OC(=O)NC(C)(C)C)c1
inactive: [10] 94 % of control | [11] 94 % of control | [12] 94 % of control

NS(=O)(=O)c1ccc(Cl)c(Cl)c1
inactive: [10] 97 % of control | [11] 103 % of control | [12] 93 % of control

NP(N)(=O)c1ccccc1
inactive: [10] 107 % of control | [11] 118 % of control | [12] 105 % of control

CC(=O)NC1C(O)CC(O)(C(=O)O)OC1C(O)C(O)CO (stereo not drawn)
inactive: [6] 98 % of control | [7] 100 % of control | dose: 400.0 mg/kg/injection, schedule: Q01DX001 (ip), vehicle: saline 94 % of control

O=C1N=C(c2ccccc2)C(c2ccccc2)=N1
inactive: [2] 96 % of control | [3] 90 % of control | [13] 96 % of control

Cc1ccc(S(=O)(=O)CC(=O)NC(N)=O)cc1
inactive: [2] 92 % of control | [3] 103 % of control | [13] 105 % of control

CC(=O)NC1C(NC(=O)CC(NC(=O)OCc2ccccc2)C(=O)O)OC(COC(C)=O)C(OC(C)=O)C1OC(C)=O (stereo not drawn)
inactive: [8] 91 % of control | [9] 94 % of control | dose: 200.0 mg/kg/injection, schedule: Q04DX002 (ip), vehicle: saline 100 % of control

CN(C)C=NC(c1ccccc1)c1ccc(Cl)cc1 (stereo not drawn)
inactive: dose: 75.0 mg/kg/injection, schedule: Q01DX009 (ip), vehicle: saline with Tween-80 95 % of control | dose: 150.0 mg/kg/injection, schedule: Q01DX009 (ip), vehicle: saline with Tween-80 95 % of control | dose: 300.0 mg/kg/injection, schedule: Q01DX009 (ip), vehicle: saline with Tween-80 100 % of control

CCCCCCCCP(=O)(CCCCCCCC)C(O)C(Cl)(Cl)Cl (stereo not drawn)
inactive: [10] 91 % of control | [11] 96 % of control | [12] 92 % of control
